Laboratory results published in PMC5218480 (PLoS ONE, 2017).

Test system: MV-4-11 cells
Test: Gene expression microarray analysis (Affymetrix PrimeView) and GSEA
Assay type: cell-based, human
Set-up: RFU PODN (11730768_x_at) / Fold change /veh PODN (11730768_x_at) / RFU LINC00158 (11744669_a_at) / Fold change /veh LINC00158 (11744669_a_at) / RFU DUSP10 (11751237_a_at) / Fold change /veh DUSP10 (11751237_a_at) / RFU ID3 (11757404_x_at) / Fold change /veh ID3 (11757404_x_at) / RFU PLEKHG5 (11737974_s_at) / Fold change /veh PLEKHG5 (11737974_s_at) / RFU LRRC4B (11730491_at) / Fold change /veh LRRC4B (11730491_at) / RFU GIMAP4 (11747438_a_at) / Fold change /veh GIMAP4 (11747438_a_at) / RFU KRT8 (11758183_x_at) / Fold change /veh KRT8 (11758183_x_at) / RFU CNN1 (11734310_a_at) / Fold change /veh CNN1 (11734310_a_at) / RFU VPS37D (11726825_at) / Fold change /veh VPS37D (11726825_at) / RFU C10orf10 (11716522_x_at) / Fold change /veh C10orf10 (11716522_x_at) / RFU KIR2DL2 /// KIR2DL4 /// KIR2DL5A /// KIR2DL5B /// KIR2DS1 /// KIR2DS2 /// KIR2DS3 /// KIR2DS4 /// KIR3DL3 /// KIR3DL3 /// KIR3DS1 (11738374_at) / Fold change /veh KIR2DL2 /// KIR2DL4 /// KIR2DL5A /// KIR2DL5B /// KIR2DS1 /// KIR2DS2 /// KIR2DS3 /// KIR2DS4 /// KIR3DL3 /// KIR3DL3 /// KIR3DS1 (11738374_at) / RFU C1QL1 (11718748_at) / Fold change /veh C1QL1 (11718748_at) / RFU TMPRSS4 (11747572_a_at) / Fold change /veh TMPRSS4 (11747572_a_at) / RFU HAMP (11756126_x_at) / Fold change /veh HAMP (11756126_x_at) / RFU RNFT2 (11725882_a_at) / Fold change /veh RNFT2 (11725882_a_at) / RFU NR4A2 (11747474_a_at) / Fold change /veh NR4A2 (11747474_a_at) / RFU ABCC12 (11746883_a_at) / Fold change /veh ABCC12 (11746883_a_at) / RFU TMEM136 (11760407_x_at) / Fold change /veh TMEM136 (11760407_x_at) / RFU CLDN22 /// WWC2 (11732394_at) / Fold change /veh CLDN22 /// WWC2 (11732394_at) / RFU HLA-DPB1 (11760878_x_at) / Fold change /veh HLA-DPB1 (11760878_x_at) / RFU SPINT1 (11716480_a_at) / Fold change /veh SPINT1 (11716480_a_at) / RFU GAP43 (11754022_s_at) / Fold change /veh GAP43 (11754022_s_at) / RFU A4GNT (11735810_at) / Fold change /veh A4GNT (11735810_at) / RFU PRB3 (11715151_x_at) / Fold change /veh PRB3 (11715151_x_at) / RFU TUBB4B (11761932_at) / Fold change /veh TUBB4B (11761932_at) / RFU CAPN14 (11732068_a_at) / Fold change /veh CAPN14 (11732068_a_at) / RFU TMCC2 (11721928_a_at) / Fold change /veh TMCC2 (11721928_a_at) / RFU IRGQ (11745062_a_at) / Fold change /veh IRGQ (11745062_a_at) / RFU FAM174B (11720279_a_at) / Fold change /veh FAM174B (11720279_a_at) / RFU TMPRSS4 (11748680_a_at) / Fold change /veh TMPRSS4 (11748680_a_at) / RFU FAM212B (11763350_a_at) / Fold change /veh FAM212B (11763350_a_at) / RFU PLEKHG5 (11743358_a_at) / Fold change /veh PLEKHG5 (11743358_a_at) / RFU ZSCAN30 (11745921_a_at) / Fold change /veh ZSCAN30 (11745921_a_at) / RFU CMKLR1 (11741424_a_at) / Fold change /veh CMKLR1 (11741424_a_at) / RFU LOC101060620 /// MAPK8IP1 (11723275_at) / Fold change /veh LOC101060620 /// MAPK8IP1 (11723275_at) / RFU SPTSSB (11747773_x_at) / Fold change /veh SPTSSB (11747773_x_at) / RFU PRSS12 (11739890_at) / Fold change /veh PRSS12 (11739890_at) / RFU BIN1 (11741810_x_at) / Fold change /veh BIN1 (11741810_x_at) / RFU WNT11 (11732464_a_at) / Fold change /veh WNT11 (11732464_a_at) / RFU C10orf10 (11716521_a_at) / Fold change /veh C10orf10 (11716521_a_at) / RFU C5orf56 (11738089_at) / Fold change /veh C5orf56 (11738089_at) / RFU CYB561 (11721691_x_at) / Fold change /veh CYB561 (11721691_x_at) / RFU ANKRD19P (11752326_a_at) / Fold change /veh ANKRD19P (11752326_a_at) / RFU OR2T12 /// OR2T33 /// OR2T8 (11738714_s_at) / Fold change /veh OR2T12 /// OR2T33 /// OR2T8 (11738714_s_at) / RFU VCAN (11748164_a_at) / Fold change /veh VCAN (11748164_a_at) / RFU JSRP1 (11732532_at) / Fold change /veh JSRP1 (11732532_at) / RFU KRTAP10-11 (11738290_x_at) / Fold change /veh KRTAP10-11 (11738290_x_at) / RFU MYO3A (11730013_a_at) / Fold change /veh MYO3A (11730013_a_at) / RFU EBF3 (11725865_a_at) / Fold change /veh EBF3 (11725865_a_at) / RFU CAMK2N1 (11719241_x_at) / Fold change /veh CAMK2N1 (11719241_x_at) / RFU C5orf56 (11738088_a_at) / Fold change /veh C5orf56 (11738088_a_at) / RFU OLFML3 (11715873_a_at) / Fold change /veh OLFML3 (11715873_a_at) / RFU LOC100653217 /// NTM (11731650_a_at) / Fold change /veh LOC100653217 /// NTM (11731650_a_at) / RFU MAPK11 (11762145_a_at) / Fold change /veh MAPK11 (11762145_a_at) / RFU FIZ1 (11724087_x_at) / Fold change /veh FIZ1 (11724087_x_at) / RFU OASL (11726364_x_at) / Fold change /veh OASL (11726364_x_at) / RFU SOX15 (11748057_x_at) / Fold change /veh SOX15 (11748057_x_at) / RFU CD79A (11719716_a_at) / Fold change /veh CD79A (11719716_a_at) / RFU HIST1H1D (11736915_at) / Fold change /veh HIST1H1D (11736915_at) / RFU CASKIN2 (11723855_a_at) / Fold change /veh CASKIN2 (11723855_a_at) / RFU LOC730098 (11760151_x_at) / Fold change /veh LOC730098 (11760151_x_at) / RFU OR4N2 (11742367_at) / Fold change /veh OR4N2 (11742367_at) / RFU PRRT2 (11749266_a_at) / Fold change /veh PRRT2 (11749266_a_at) / RFU SNX32 (11753110_a_at) / Fold change /veh SNX32 (11753110_a_at) / RFU CDHR5 (11726645_a_at) / Fold change /veh CDHR5 (11726645_a_at) / RFU RCAN1 (11760418_a_at) / Fold change /veh RCAN1 (11760418_a_at) / RFU FAM167A (11723789_a_at) / Fold change /veh FAM167A (11723789_a_at) / RFU FAM26E (11764081_at) / Fold change /veh FAM26E (11764081_at) / RFU ISYNA1 (11749810_s_at) / Fold change /veh ISYNA1 (11749810_s_at) / RFU ACY1 (11761880_at) / Fold change /veh ACY1 (11761880_at) / RFU 11764098_at / Fold change /veh 11764098_at / RFU SAMD14 (11745864_x_at) / Fold change /veh SAMD14 (11745864_x_at) / RFU NPB (11741838_a_at) / Fold change /veh NPB (11741838_a_at) / RFU TMPRSS6 (11731388_a_at) / Fold change /veh TMPRSS6 (11731388_a_at) / RFU KRTAP10-2 (11738614_at) / Fold change /veh KRTAP10-2 (11738614_at) / RFU ARHGAP8 /// PRR5-ARHGAP8 (11727945_x_at) / Fold change /veh ARHGAP8 /// PRR5-ARHGAP8 (11727945_x_at) / RFU KRTAP5-7 /// NADSYN1 (11734609_at) / Fold change /veh KRTAP5-7 /// NADSYN1 (11734609_at) / RFU RASL12 (11751679_a_at) / Fold change /veh RASL12 (11751679_a_at) / RFU CDKN2B (11736163_a_at) / Fold change /veh CDKN2B (11736163_a_at) / RFU PRF1 (11729649_at) / Fold change /veh PRF1 (11729649_at) / RFU, ZNF638 /// ZNF638-IT1 / Fold change vs veh, ZNF638 /// ZNF638-IT1 / RFU, PANK3 / Fold change vs veh, PANK3 / RFU, SH3YL1 / Fold change vs veh, SH3YL1 / RFU, ZEB2 / Fold change vs veh, ZEB2 / RFU, NRIP1 / Fold change vs veh, NRIP1 / RFU, PTTG1IP / Fold change vs veh, PTTG1IP / RFU, CAPN2 / Fold change vs veh, CAPN2 / RFU, MED14 / Fold change vs veh, MED14 / RFU, SNORA58 / Fold change vs veh, SNORA58 / RFU, C1orf63 / Fold change vs veh, C1orf63 / RFU, LRRFIP1 / Fold change vs veh, LRRFIP1 / RFU, NDUFAF7 / Fold change vs veh, NDUFAF7 / RFU, SLC12A2 / Fold change vs veh, SLC12A2 / RFU, IBTK / Fold change vs veh, IBTK / RFU, ESF1 / Fold change vs veh, ESF1 / Fold change vs veh, TMEM50B / RFU, TAOK1 / Fold change vs veh, TAOK1 / RFU, ACBD3 / Fold change vs veh, ACBD3 / RFU, TMA16 / Fold change vs veh, TMA16 / RFU, RWDD3 / Fold change vs veh, RWDD3 / RFU, BCAT1 / Fold change vs veh, BCAT1 / RFU, EDEM3 / Fold change vs veh, EDEM3 / RFU, TMEM33 / Fold change vs veh, TMEM33 / RFU, WDR75 / Fold change vs veh, WDR75 / RFU, AHCTF1 / Fold change vs veh, AHCTF1 / RFU, TFRC / Fold change vs veh, TFRC / RFU, ZDHHC17 / Fold change vs veh, ZDHHC17 / RFU, NOM1 / Fold change vs veh, NOM1 / RFU, ARL8B / Fold change vs veh, ARL8B / RFU, ZBTB11 / Fold change vs veh, ZBTB11 / RFU, TAMM41 / Fold change vs veh, TAMM41 / RFU, KIAA1704 /// LOC100996395 / Fold change vs veh, KIAA1704 /// LOC100996395 / RFU, ING1 / Fold change vs veh, ING1 / RFU, TRMT61B / Fold change vs veh, TRMT61B / RFU, FUBP3 / Fold change vs veh, FUBP3 / RFU, TP53 / Fold change vs veh, TP53 / RFU, TNKS2 / Fold change vs veh, TNKS2 / RFU, ZFP14 / Fold change vs veh, ZFP14 / RFU, ACTR2 / Fold change vs veh, ACTR2 / RFU, PPP3R1 / Fold change vs veh, PPP3R1 / RFU, PIK3R1 / Fold change vs veh, PIK3R1 / RFU, HNRNPA1 / Fold change vs veh, HNRNPA1 / RFU, RNF170 / Fold change vs veh, RNF170 / RFU, ZNF28 / Fold change vs veh, ZNF28 / RFU, RNGTT / Fold change vs veh, RNGTT / RFU, OGT / Fold change vs veh, OGT / RFU, BRD1 / Fold change vs veh, BRD1 / RFU, MARS / Fold change vs veh, MARS / RFU, ZNF655 / Fold change vs veh, ZNF655 / RFU, FAHD1 / Fold change vs veh, FAHD1 / RFU, BDP1 / Fold change vs veh, BDP1 / RFU, LRRCC1 / Fold change vs veh, LRRCC1 / RFU, ARID1A / Fold change vs veh, ARID1A / RFU, ZNF146 / Fold change vs veh, ZNF146 / RFU, ZNF330 / Fold change vs veh, ZNF330 / RFU, GPN3 / Fold change vs veh, GPN3 / RFU, C9orf123 / Fold change vs veh, C9orf123 / RFU, N4BP2L2 / Fold change vs veh, N4BP2L2 / RFU, ARFIP1 / Fold change vs veh, ARFIP1 / RFU, FAM179B / Fold change vs veh, FAM179B / RFU, BCL10 / Fold change vs veh, BCL10 / RFU, UHRF1BP1L / Fold change vs veh, UHRF1BP1L / RFU, BET1 / Fold change vs veh, BET1 / RFU, CNOT2 / Fold change vs veh, CNOT2 / RFU, ZNF268 / Fold change vs veh, ZNF268 / Fold change vs veh, ZNF507 / RFU, DGCR2 / Fold change vs veh, DGCR2 / RFU, WDSUB1 / Fold change vs veh, WDSUB1 / Fold change vs veh, HSP90B1 /// MIR3652 / RFU, ADSS / Fold change vs veh, ADSS / RFU, GK / Fold change vs veh, GK / RFU, ZNF148 / Fold change vs veh, ZNF148 / RFU, TAF9 / Fold change vs veh, TAF9 / RFU, SLC1A5 / Fold change vs veh, SLC1A5 / RFU, SLMO2 / Fold change vs veh, SLMO2 / RFU, ABCC4 / Fold change vs veh, ABCC4 / RFU, LOC101060439 /// RAP1B / Fold change vs veh, LOC101060439 /// RAP1B / RFU, RFX7 / Fold change vs veh, RFX7 / RFU, GTPBP10 / Fold change vs veh, GTPBP10 / RFU, CNEP1R1 / Fold change vs veh, CNEP1R1 / RFU, BIVM-ERCC5 /// ERCC5 / Fold change vs veh, BIVM-ERCC5 /// ERCC5 / RFU, ILF3 / Fold change vs veh, ILF3 / RFU 11762660_at / Fold change /veh 11762660_at / RFU VCAN (11757783_s_at) / Fold change /veh VCAN (11757783_s_at) / RFU DDX43 (11728927_at) / Fold change /veh DDX43 (11728927_at) / RFU KRT8 (11758188_x_at) / Fold change /veh KRT8 (11758188_x_at) / RFU NKD1 (11759106_at) / Fold change /veh NKD1 (11759106_at) / RFU SRD5A1 (11742802_a_at) / Fold change /veh SRD5A1 (11742802_a_at) / RFU TPSAB1 /// TPSB2 (11721975_s_at) / Fold change /veh TPSAB1 /// TPSB2 (11721975_s_at) / RFU GSTM3 (11746129_a_at) / Fold change /veh GSTM3 (11746129_a_at) / RFU IL23R (11737362_x_at) / Fold change /veh IL23R (11737362_x_at) / RFU TMEM51 (11727254_a_at) / Fold change /veh TMEM51 (11727254_a_at) / RFU PIWIL2 (11732686_x_at) / Fold change /veh PIWIL2 (11732686_x_at) / RFU ORM1 (11744905_x_at) / Fold change /veh ORM1 (11744905_x_at) / RFU CCDC152 (11743942_at) / Fold change /veh CCDC152 (11743942_at) / RFU ECM1 (11717891_a_at) / Fold change /veh ECM1 (11717891_a_at) / RFU IL23R (11748794_a_at) / Fold change /veh IL23R (11748794_a_at) / RFU TNFAIP8L3 (11732012_x_at) / Fold change /veh TNFAIP8L3 (11732012_x_at) / RFU MBOAT4 (11741988_at) / Fold change /veh MBOAT4 (11741988_at) / RFU 11764193_at / Fold change /veh 11764193_at / RFU TMEM53 (11763286_at) / Fold change /veh TMEM53 (11763286_at) / RFU MAGEB2 (11727129_at) / Fold change /veh MAGEB2 (11727129_at) / RFU TMEM200A (11744735_a_at) / Fold change /veh TMEM200A (11744735_a_at) / RFU CCDC152 (11751479_a_at) / Fold change /veh CCDC152 (11751479_a_at) / RFU FAM211A (11726209_a_at) / Fold change /veh FAM211A (11726209_a_at) / RFU RGS16 (11746705_a_at) / Fold change /veh RGS16 (11746705_a_at) / RFU VCAN (11755009_s_at) / Fold change /veh VCAN (11755009_s_at) / RFU RHOB (11743442_s_at) / Fold change /veh RHOB (11743442_s_at) / RFU RGS16 (11720943_a_at) / Fold change /veh RGS16 (11720943_a_at) / RFU RGS16 (11720944_at) / Fold change /veh RGS16 (11720944_at) / RFU, VPS4B / Fold change vs veh, VPS4B / RFU, CREB1 / Fold change vs veh, CREB1 / RFU, DNAJC13 / Fold change vs veh, DNAJC13 / RFU, GNAQ / Fold change vs veh, GNAQ / RFU, CDK5R1 / Fold change vs veh, CDK5R1 / RFU, ZRANB3 / Fold change vs veh, ZRANB3 / RFU, CUL4A / Fold change vs veh, CUL4A / RFU, CCNY / Fold change vs veh, CCNY / RFU, UFL1 / Fold change vs veh, UFL1 / RFU, COG3 / Fold change vs veh, COG3 / RFU, DIAPH2 / Fold change vs veh, DIAPH2 / RFU, SKA2 / Fold change vs veh, SKA2 / RFU, AFF3 / Fold change vs veh, AFF3 / RFU, LMF1 / Fold change vs veh, LMF1 / RFU, IPO11 / Fold change vs veh, IPO11 / RFU, DFFB / Fold change vs veh, DFFB / RFU, FOXP1 / Fold change vs veh, FOXP1 / RFU, CARD8 / Fold change vs veh, CARD8 / RFU, STRN3 / Fold change vs veh, STRN3 / RFU, ADK / Fold change vs veh, ADK / RFU, RASSF2 / Fold change vs veh, RASSF2 / RFU, WIPF1 / Fold change vs veh, WIPF1 / RFU, LARP1B / Fold change vs veh, LARP1B / RFU, RASA1 / Fold change vs veh, RASA1 / RFU, RB1 / Fold change vs veh, RB1 / RFU, PPFIA1 / Fold change vs veh, PPFIA1 / RFU, MAT2A / Fold change vs veh, MAT2A / RFU, CCT5 / Fold change vs veh, CCT5 / RFU, WDR92 / Fold change vs veh, WDR92 / RFU, CUX1 / Fold change vs veh, CUX1 / RFU, TTC7A / Fold change vs veh, TTC7A / RFU, TMEM135 / Fold change vs veh, TMEM135 / RFU, DEPTOR / Fold change vs veh, DEPTOR / RFU, CPM / Fold change vs veh, CPM / RFU, DNAJB6 / Fold change vs veh, DNAJB6 / RFU, CACNA2D3 / Fold change vs veh, CACNA2D3 / RFU, DTX4 / Fold change vs veh, DTX4 / RFU, TFCP2 / Fold change vs veh, TFCP2 / RFU, GMCL1 /// GMCL1P1 / Fold change vs veh, GMCL1 /// GMCL1P1 / RFU, AEBP2 / Fold change vs veh, AEBP2 / RFU, SNHG1 /// SNORD22 /// SNORD25 /// SNORD26 /// SNORD27 /// SNORD28 /// SNORD29 /// SNORD31 / Fold change vs veh, SNHG1 /// SNORD22 /// SNORD25 /// SNORD26 /// SNORD27 /// SNORD28 /// SNORD29 /// SNORD31 / Fold change (Aza/veh), C12orf56 (ProbeSet 11735607_a_at) / Fold change (ACY-1035/veh), C12orf56 (ProbeSet 11735607_a_at) / Fold change (Aza/veh), FGFR1OP (ProbeSet 11751329_s_at) / Fold change (ACY-1035/veh), FGFR1OP (ProbeSet 11751329_s_at) / Fold change (Aza/veh), VPS36 (ProbeSet 11739960_a_at) / Fold change (ACY-1035/veh), VPS36 (ProbeSet 11739960_a_at) / RFU SYPL1 (11715823_x_at) / Fold change /veh SYPL1 (11715823_x_at) / RFU IGFBP7 (11715501_s_at) / Fold change /veh IGFBP7 (11715501_s_at) / RFU REEP3 (11722064_at) / Fold change /veh REEP3 (11722064_at) / RFU IGLL1 (11728026_x_at) / Fold change /veh IGLL1 (11728026_x_at): dose or concentration left out as unconfirmed
Conditions: ProbeSet 11716844_s_at; LIST D

**Q.** Which “RFU, DNAJC13” value does the source give for Nc1ncn([C@@H]2O[C@H](CO)[C@@H](O)[C@H]2O)c(=O)n1 [azacitidine] here?
**A.** Its value is 111.36 RFU.
